Columns and labels:
Assay type in all cases: cell-based, human
Medalist fibroblasts [1] = experiment: VEGF protein secreted to the medium (ELISA)
Text: Skin were obtained from 26 Medalists with various complications and from 7 age-matched non-diabetic controls during post-mortem period. Primary fibroblast cultures were derived from human skin samples, sustained in DMEM (10-027, Cellgro Inc.) supplemented with 10% heat inactivated fetal bovine serum, over a period of 4 weeks, in a 6-well plate, with media supplementation every other day. Subsequently, as fibroblasts emerged from the primary explant, a brief trypsinization (0.25% Trypsin) was used to separate and further expand the cells in a 10 cm^2 plate. In all experiments fibroblasts were used between passages 2-5.
(§1) Fibroblasts with passage≦5 were grown and expanded in 10 cm plate with DMEM supplemented with 10% FBS. Cells were stimulated with the conditions and compounds as indicated after overnight starvation in DMEM with 0.1% BSA without FBS. Cells were lysed and protein amounts were measured with BCA kit (Bio-Rad, Hercules, Calif.). Protein lysates (20-30 μg) were separated by SDS-PAGE, transferred, blocked and detected as we described before (Park et al., Mol Cell Biol. 2013 August; 33(16):3227-41). The signal intensity was quantified using ImageJ software (SynGene, Frederick, Md.). For immune precipitation, tissue lysates were incubated with the appropriate antibodies followed by the addition of protein A/G Sepharose beads (Santa Cruz Biotechnology, Inc., Santa Cruz, Calif.). The precipitated proteins were subjected to SDS-PAGE followed by immunoblotting with the appropriate antibodies as described before (Park et al., Mol Cell Biol. 2013 August; 33(16):3227-41).
The transfection of siRNA was performed using the Ambion Silencer Select Validated siRNA kit for primary cells (Ambion by Life Technology, Carlsband, Calif.), in 60-70% confluent fibroblast. For evaluating insulin's effect on VEGF production, cells were washed twice with PBS, and starved overnight with DMEM containing 1% BSA. Insulin (100 nM) was added to each for additional 16 h. After incubation, media were collected for VEGF measurement by ELISA and the cell lysate were collected for measuring protein concentration.
Protein levels of VEGF in the medium were measured using Quantikine R&D System kit (Minneapolis, Minn.). This kit determines mainly VEGF165. Glycated hemoglobin (HbA1c) was determined by HPLC (Tosoh G7 and 2.2, Tokyo, Japan). Serum creatinine was determined by spectrophotometry. Urine albumin and creatinine were determined by turbidimetric methods. Serum C-peptide was determined by RIA (Beckman Coulter, Inc, Fullerton, Calif.).

Medalist fibroblasts [2] = experiment: VEGF protein secreted to the medium (ELISA); conditions: fibroblasts from Medalists compared to controls; 10 ng/ml TGF for 24 hours
Medalist fibroblasts [3] = experiment: p-AKT (Ser473) immunoblot; conditions: for p-AKT increase compared to untreated cells: Medalist fibroblasts, 100 nM insulin or 10 ng/ml PDGF-BB for 10 minutes; for p-AKT increase: 100 nM insulin 10 minutes
Procedure: as §1

control fibroblasts [4] = experiment: p-AKT (Ser473) immunoblot; conditions: for p-AKT increase compared to untreated cells: 100 nM insulin or 10 ng/ml PDGF-BB for 10 minutes
Procedure: as §1

Medalist fibroblasts [5] = experiment: VEGF mRNA by real-time PCR; conditions: fibroblasts from Medalists, 100 nM insulin
Procedure: (§2) Real-time PCR was performed to evaluate mRNA expressions of VEGF, PDGF-B, Fibronectin, and PKCδ in cultured fibroblast and mice granulation tissue as we described before (Geraldes et al., Nat Med. 2009 November; 15(11):1298-306). PCR primers and probes are detailed in Table A. Human 36B4 or 18S ribosomal RNA expressions as indicated were used for normalization.

control fibroblasts [6] = experiment: VEGF mRNA by real-time PCR; conditions: fibroblasts from controls, 100 nM insulin
Procedure: as §2

Medalist fibroblasts [7] = experiment: p-Tyr of insulin receptor beta subunit immunoblot; conditions: 100 nM insulin
Procedure: as §1

control fibroblasts [8] = experiment: p-Tyr of insulin receptor beta subunit immunoblot; conditions: controls, 100 nM insulin
Procedure: as §1

Medalist fibroblasts [9] = experiment: Scratch wound migration assay; conditions: 10 ng/ml PDGF-BB or 100 nM insulin for 12 h
Procedure: (§3) Scratch wound migration assay—100% Confluent starved Medalist or control fibroblasts wounded, followed by incubation with 10 ng/ml PDGF-BB or 100 nM insulin for 12 hours. Phase contrast images of wounded areas were taken at time 0, 4, 6, 8 and 12 hours after stimulation, and migration was determined as described before (Ito et al., Am J Physiol Lung Cell Mol Physiol. 2014 Jul. 1; 307(1):L94-105).

control fibroblasts [10] = experiment: Scratch wound migration assay; conditions: 10 ng/ml PDGF-BB or 100 nM insulin for 12 h
Procedure: as §3

control fibroblasts [11] = experiment: VEGF protein secreted to the medium (ELISA)
Medalist fibroblasts [12] = experiment: IRS1 tyrosine phosphorylation immunoblot; conditions: 100 nM insulin
Procedure: as §1

control fibroblasts [13] = experiment: IRS1 tyrosine phosphorylation immunoblot; conditions: fibroblasts of controls, 100 nM insulin
Procedure: as §1

[14] = fibroblasts of Medalists with CVD
[15] = fibroblasts of Medalists without CVD

CN(C)CCCn1cc(C2=C(c3c[nH]c4ccccc34)C(=O)NC2=O)c2ccccc21 [GFX, 2[1-(3-dimethylaminopropyl)-1H-indol-3-yl]-3-(1H-indol-3-yl)-maleimide]
fold increase in VEGF levels above basal (Medalist fibroblasts [1]; Medalist fibroblasts, inhibitor + 100 nM insulin (10 mM GFX or 3 uM rottlerin)): 4.74±0.94 fold | fold increase in VEGF levels above basal (Medalist fibroblasts [1]; Medalist fibroblasts, inhibitor alone, no insulin (10 mM GFX or 3 uM rottlerin)): 2.55±0.43 fold

COc1cccc(-c2cc(=O)c3ccccc3o2)c1N [PD98059]
insulin-stimulated VEGF production (Medalist fibroblasts [1]; Medalist fibroblasts, 100 nM insulin in presence of 100 nM wortmanin or 10 μM PD98059): but not PD98059, significantly inhibited

CN(C)C[C@@H]1CCn2cc(c3ccccc32)C2=C(C(=O)NC2=O)c2cn(c3ccccc23)CCO1 [RBX, Ruboxistaurin]
insulin stimulated VEGF secretion (Medalist fibroblasts [1]; Medalist fibroblasts, 100 nM insulin with 100 nM RBX): failed to increase

CC(=O)c1c(O)c(C)c(O)c(Cc2c(O)c3c(c(C(=O)/C=C/c4ccccc4)c2O)OC(C)(C)C=C3)c1O [rottlerin, Rottlerin]
fold increase in VEGF levels above basal (Medalist fibroblasts [1]; Medalist fibroblasts, inhibitor + 100 nM insulin (GFX or 3 uM rottlerin)): 5.25±0.56 fold | fold increase in VEGF levels above basal (Medalist fibroblasts [1]; Medalist fibroblasts, inhibitor alone, no insulin (GFX or 3 uM rottlerin)): 3.74±0.49 fold

TGF-β
VEGF induced by TGF-β (Medalist fibroblasts [2]): blunted

insulin
p-AKT increase compared to untreated cells (Medalist fibroblasts [3]): 2 fold | p-AKT increase (Medalist fibroblasts [3]; [14]): 1.8 fold | p-AKT increase (Medalist fibroblasts [3]; [15]): 2.4 fold | p-AKT increase (control fibroblasts [4]; 100 nM insulin 10 minutes (CVD comparison experiment)): 4.0 fold | p-AKT increase compared to untreated cells (control fibroblasts [4]): 3.6 fold | stimulation of VEGF mRNA production (Medalist fibroblasts [5]): failed to significantly stimulate | increase in VEGF mRNA (control fibroblasts [6]): 2.4 fold | p-Tyr of the insulin receptor beta subunit, increase (Medalist fibroblasts [7]; Medalists with CVD): 4.7 fold | p-Tyr of the insulin receptor beta subunit, increase (Medalist fibroblasts [7]; Medalists without CVD): 4.9 fold | p-Tyr of the insulin receptor beta subunit, increase (control fibroblasts [8]): 5.2 fold | cell migration (Medalist fibroblasts [9]): failed to significantly increase | cell migration (control fibroblasts [10]): 1.7 fold | VEGF production, fold (control fibroblasts [11]; Ad-GFP infected control fibroblasts, with 100 nM insulin 16 hours): 2.89±0.67 fold | increase in VEGF protein levels (control fibroblasts [11]; fibroblasts from controls, 100 nM insulin): 66% | IRS1 tyrosine phosphorylation at site 649 (p-Tyr649), increase (Medalist fibroblasts [12]; [14]): 34% | IRS1 tyrosine phosphorylation at site 911 (p-Tyr911), increase (Medalist fibroblasts [12]; [14]): 26% | IRS1 tyrosine phosphorylation at site 649 (p-Tyr649), increase (Medalist fibroblasts [12]; [15]): 63% | IRS1 tyrosine phosphorylation at site 911 (p-Tyr911), increase (Medalist fibroblasts [12]; [15]): 40% | IRS1 tyrosine phosphorylation at site 649 (p-Tyr649), increase (control fibroblasts [13]): 53% | IRS1 tyrosine phosphorylation at site 911 (p-Tyr911), increase (control fibroblasts [13]): 52% | VEGF secretion, fold increase (Medalist fibroblasts [1]; Ad-GFP infected Medalist fibroblasts, with 100 nM insulin 16 hours): 1.51±0.18 fold | VEGF secretion, fold increase above basal (Medalist fibroblasts [1]; Medalist fibroblasts, insulin alone, siRNA experiment): 1.28±0.10 fold | fold increase in VEGF levels above basal (Medalist fibroblasts [1]; Medalist fibroblasts, 100 nM insulin alone, GFX experiment): 1.59±0.10 fold | fold increase in VEGF levels above basal (Medalist fibroblasts [1]; Medalist fibroblasts, 100 nM insulin alone, rottlerin experiment): 1.50±0.31 fold | VEGF protein levels after insulin stimulation (Medalist fibroblasts [1]; Medalists with CVD (basal 75.5±13.7)): 106.0±12.0 pg/mg protein | VEGF protein levels after insulin stimulation (Medalist fibroblasts [1]; Medalists without CVD (basal 57.5±8.5)): 99.1±8.4 pg/mg protein | stimulation of VEGF protein (Medalist fibroblasts [1]; fibroblasts from Medalists, 100 nM insulin): failed to significantly stimulate

B1: PDGF-BB: platelet-derived growth factor, 10 ng/ml stimulus (protein, UniProt P01127 82-190, looked up)
Platelet-derived growth …: SLGSLTIAEPAMIAECKTRTEVFEISRRLIDRTNANFLVWPPCVEVQRCSGCCNNRNVQCRPTQVQLRPVQVRKIEIVRKKPIFKKATVTLEDHLACKCETVAAARPVT
modifications: homodimer BB
notes: platelet-derived growth factor, 10 ng/ml stimulus
p-AKT increase compared to untreated cells (Medalist fibroblasts [3]): 7 fold | p-AKT increase compared to untreated cells (control fibroblasts [4]): 7 fold | cell migration (Medalist fibroblasts [9]): increased cell migration significantly | cell migration (control fibroblasts [10]): increased cell migration significantly
